Laboratory results published in patent US6756402B2, “Cyclipostins, process for their preparation and use thereof” (Aventis Pharma Deutschland GmbH, priority 2000, dated 2004).
Read-outs that look alike come from different tables or passages of the source.

What was measured:
[1] = biological target: T1, hormone-sensitive lipase (HSL) (Rattus norvegicus, UniProt P15304); experiment: Inhibition of partially purified hormone-sensitive lipase (HSL) from rats, [3H]trioleoylglycerol substrate; type: biochemical
T1 construct: Isolated rat lipocytes were obtained from epididymal fatty tissue of nontreated male rats; from tissue; host or cells: rat epididymal fat tissue lipocytes (Wistar), partially purified
T1 sequence (P15304 1-768 isoform P15304-2): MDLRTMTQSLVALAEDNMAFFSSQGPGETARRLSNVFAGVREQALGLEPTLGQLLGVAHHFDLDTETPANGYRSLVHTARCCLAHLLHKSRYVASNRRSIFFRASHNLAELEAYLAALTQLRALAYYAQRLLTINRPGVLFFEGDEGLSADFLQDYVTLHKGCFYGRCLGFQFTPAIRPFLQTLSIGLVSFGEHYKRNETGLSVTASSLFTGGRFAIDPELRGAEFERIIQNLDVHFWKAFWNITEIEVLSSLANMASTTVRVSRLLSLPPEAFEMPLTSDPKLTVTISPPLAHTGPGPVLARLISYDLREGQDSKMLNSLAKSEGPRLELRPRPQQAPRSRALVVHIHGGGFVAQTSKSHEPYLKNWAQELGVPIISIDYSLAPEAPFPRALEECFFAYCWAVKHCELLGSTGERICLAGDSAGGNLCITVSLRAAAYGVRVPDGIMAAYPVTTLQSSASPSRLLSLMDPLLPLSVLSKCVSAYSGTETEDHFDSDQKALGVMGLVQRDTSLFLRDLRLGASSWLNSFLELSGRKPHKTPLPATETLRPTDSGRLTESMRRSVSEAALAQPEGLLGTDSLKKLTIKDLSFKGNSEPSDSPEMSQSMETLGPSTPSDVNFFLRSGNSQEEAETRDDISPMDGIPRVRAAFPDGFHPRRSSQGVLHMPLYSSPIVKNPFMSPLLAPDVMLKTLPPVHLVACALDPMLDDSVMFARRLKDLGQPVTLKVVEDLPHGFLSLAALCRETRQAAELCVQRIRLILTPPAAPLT
Procedure: Isolated rat lipocytes were obtained from epididymal fatty tissue of nontreated male rats (Wistar, 220-250 g) by collagenase treatment according to published procedures (e.g., S. Nilsson et al., Anal. Biochem. 158:399-407 (1986); G. Fredrikson et al., J. Biol. Chem. 256, 6311-6320 (1981); H. Tornquist et al., J. Biol. Chem. 251:813-819 (1976)). The lipocytes from 10 rats were washed three times by flotation with 50 ml of homogenization buffer in each case ([…] TRIS/HCl, pH 7.4, 0.25 M sucrose, 1 mM EDTA, 1 mM DTT, 10 μg/ml of leupeptin, 10 μg/ml of antipain, 20 μg/ml of pepstatin) and finally taken up in 10 ml of homogenization buffer. The lipocytes were homogenized in a Teflon-in-glass homogenizer (Braun-Melsungen) by means of 10 strokes at 1500 rpm and 15° C. The homogenisate was centrifuged (Sorvall SM24 tubes, 5000 rpm, 10 min, 4° C.). The lower layer between the overlying fatty layer and the pellet was removed and the centrifugation was repeated. The lower layer resulting from this was centrifuged again (Sorvall SM24 tubes, 20000 rpm, 45 min, 4° C.). The lower layer was removed and treated with 1 g of heparin-sepharose (Pharmacia-Biotech, CL-6B, washed 5× with 25 mM Tris/HCl, pH 7.4, 150 mM NaCl). After incubation for 60 min at 4° C. (shaken at intervals of 15 min), the batch was centrifuged (Sorvall SM24 tubes, 3000 rpm, 10 min, 4° C.). The supernatant was brought to pH 5.2 by addition of acetic acid and incubated at 4° C. for 30 min. The precipitates were collected by centrifugation (Sorvall SS34, 12000 rpm, 10 min, 4° C.) and suspended in 2.5 ml of 20 mM Tris/HCl, pH 7.0, 1 mM EDTA, 65 mM NaCl, 13% of sucrose, 1 mM DTT, 10 μg/ml of leupeptin/pepstatin/antipain. The suspension was dialyzed overnight at 4° C. against 25 mM Tris/HCl, pH 7.4, 50% of glycerol, 1 mM DTT, 10 μg/ml of leupeptin, pepstatin, and antipain, and then applied to a hydroxylapetite column (0.1 g per 1 ml of suspension, equilibrated with 10 mM potassium phosphate, pH 7.0, 30% of glycerol, 1 mM DTT). The column was washed with four volumes of equilibration buffer at a flow rate of 20 to 30 ml/h. The HSL was eluted with a volume of equilibration buffer which contained 0.5 M potassium phosphate, then dialyzed (see above), and was concentrated 5 to 10 times by ultrafiltration (Amicon Diaflo PM 10 Filter) at 4° C. The partially purified HSL could be stored at −70° C. for 4 to 6 weeks.
For the preparation of the substrates, 25-50 μCi of [^3H]trioleoylglycerol (in toluene), 6.8 μMol of unlabeled trioleoylglycerol and 0.6 mg of phospholipid (phosphatidylcholine/phosphatidylinositol 3:1 w/v) were mixed, dried by means of N2 and then taken up in 2 ml of 0.1 M KPi (pH 7.0) by ultrasonic treatment (Branson 250, microtips, setting 1-2, 2×1 min at a 1 min interval). After addition of 1 ml of KPi and fresh ultrasonic treatment (4×30 sec on ice at 30 sec intervals), 1 ml of 20% BSA (bovine serum albumin) (in KPi) was added (final concentration of trioleoylglycerol at 1.7 mM). For the reaction, 100 μl of substrate solution were pipetted into 100 μl of HSL solution (HSL prepared as above, diluted in 20 mM KPi, pH 7.0, 1 mM EDTA, 1 mM DTT, 0.02% BSA, 20 μg/ml of pepstatin, 10 μg/ml of leupeptin) and incubated at 37° C. for 30 min. After addition of 3.25 ml of methanol/chloroform/heptane (10:9:7) and of 1.05 ml 0.1 M K2CO3, 0.1 M boric acid (pH 10.5), the batch was mixed well and finally centrifuged (800×g, 20 min). After phase separation, one equivalent of the upper phase (1 ml) was removed and the radioactivity was determined by liquid scintillation measurement.
Substances were generally tested in four independent batches. The inhibition of the enzymatic activity of the HSL by a test substance was determined by the comparison with a noninhibited control reaction. The calculation of the IC50 value was carried out by means of an inhibitory curve using at least 10 concentrations of the test substance. […]

[2] = system: lipolysis in rat adipocytes; experiment: Inhibition of lipolysis in rat adipocytes; type: cell-based; settings: Adipocyte
[3] = Solubility (characterization of the isolated substance)
HSL from rats = biological target: T2, HSL from rats (Rattus norvegicus, UniProt P15304); experiment: Inhibition of HSL from rats with NBD as substrate; type: biochemical
T2 construct: from tissue; host or cells: rat
T2 sequence (P15304 1-768 isoform P15304-2): T1 sequence (P15304 1-768 isoform P15304-2)

lipases = settings: background statement on the known methyl analogue; cited from earlier work
[4] = trioleoylglycerol as substrate, read-out: IC50, inhibition of hormone-sensitive lipase from rats
[5] = NBD (4-chloro-7-nitrobenzo-2-oxa-1,3-diazole) as substrate, read-out: concentrations inhibiting HSL from rats

Compound | IC50 [1] [nM] | IC50 [2] [nM] | solubility in oxygen-containing organic solvents [3] | solubility in water and petroleum ether [3] | IC50 (HSL from rats) [nM] | IC50 [1, 4] [nM] | IC50 (HSL from rats; [5]) [nM] | selective lipase-inhibiting properties (lipases)
CCCCCCCCCCCCCCCCOP1(=O)OCC2COC(=O)C2=C(C)O1 (stereo not shown) [Cyclipostin P] | 30 | ~200 | soluble | only slightly soluble | 4 to 10 |  |  | 
CCCC1=C2C(=O)OCC2COP(=O)(OCCCCCCCCCCCCCC(C)C)O1 (stereo not shown) [Cyclipostin T2] |  |  | soluble | only slightly soluble |  | 60 |  | 
CCCCCCCCCCCCCCCCOP1(=O)OCC2COC(=O)C2=C(CC)O1 (stereo not shown) [Cyclipostin S] |  |  | soluble | only slightly soluble |  | 20 |  | 
CCCCCCCCCCCCCCOP1(=O)OCC2COC(=O)C2=C(C)O1 (stereo not shown) [Cyclipostin N] |  |  | soluble | only slightly soluble |  | 450 |  | 
CC1=C2C(=O)OCC2COP(=O)(OCCCCCCCCCCCCC(C)C)O1 (stereo not shown) [Cyclipostin R2] |  |  | soluble | only slightly soluble |  | 220 |  | 
CCCCCCCCCCCCCCCCOP1(=O)OCC2COC(=O)C2=C(CCC)O1 (stereo not shown) [Cyclipostin T] |  |  | soluble | only slightly soluble |  | 200 |  | 
CC1=C2C(=O)OCC2COP(=O)(OCCCCCCCCCCCCCC(C)C)O1 (stereo not shown) [Cyclipostin P2] | 40 | ~200 | soluble | only slightly soluble | 4 to 10 |  |  | 
CCC(=O)CCCCCCCCCCCCCOP1(=O)OC[C@H]2COC(=O)C2=C(C)O1 (stereo partly shown) [Cyclipostin F] |  |  | soluble | only slightly soluble |  |  |  | 
CCCCCCCCCCCCCCCOP1(=O)OCC2COC(=O)C2=C(C)O1 (stereo not shown) [Cyclipostin R] |  | ~200 | soluble | only slightly soluble |  | 10 | 4 to 10 | 
CCCCC(O)CCCCCCCCCCCOP1(=O)OCC2COC(=O)C2=C(C)O1 (stereo not shown) [Cyclipostin A] |  | ~200 | soluble | only slightly soluble |  | 20 | 4 to 10 | 
CO[P@]1(=O)OC[C@H]2COC(=O)C2=C(C)O1 [CGA 134 736] |  |  |  |  |  |  |  | no selective lipase-inhibiting properties
CCCC(O)CCCCCCCCCCCCO[P@]1(=O)OC[C@H]2COC(=O)C2=C(C)O1 (stereo partly shown) [Cyclipostin B] |  |  | soluble | only slightly soluble |  |  |  | 
